Source: paper PMC11509018, “Evaluation of the Role of Tanshinone I in an In Vitro System of Charcot-Marie-Tooth Disease Type 2N” (International Journal of Molecular Sciences, 2024)

Target: T1, AlaRS^R329H (Homo sapiens, UniProt P49588, R329H)
T1 construct: made in house; host or cells: E. coli BL21 (DE3), pET-21a
T1 sequence (P49588 1-968 R329H): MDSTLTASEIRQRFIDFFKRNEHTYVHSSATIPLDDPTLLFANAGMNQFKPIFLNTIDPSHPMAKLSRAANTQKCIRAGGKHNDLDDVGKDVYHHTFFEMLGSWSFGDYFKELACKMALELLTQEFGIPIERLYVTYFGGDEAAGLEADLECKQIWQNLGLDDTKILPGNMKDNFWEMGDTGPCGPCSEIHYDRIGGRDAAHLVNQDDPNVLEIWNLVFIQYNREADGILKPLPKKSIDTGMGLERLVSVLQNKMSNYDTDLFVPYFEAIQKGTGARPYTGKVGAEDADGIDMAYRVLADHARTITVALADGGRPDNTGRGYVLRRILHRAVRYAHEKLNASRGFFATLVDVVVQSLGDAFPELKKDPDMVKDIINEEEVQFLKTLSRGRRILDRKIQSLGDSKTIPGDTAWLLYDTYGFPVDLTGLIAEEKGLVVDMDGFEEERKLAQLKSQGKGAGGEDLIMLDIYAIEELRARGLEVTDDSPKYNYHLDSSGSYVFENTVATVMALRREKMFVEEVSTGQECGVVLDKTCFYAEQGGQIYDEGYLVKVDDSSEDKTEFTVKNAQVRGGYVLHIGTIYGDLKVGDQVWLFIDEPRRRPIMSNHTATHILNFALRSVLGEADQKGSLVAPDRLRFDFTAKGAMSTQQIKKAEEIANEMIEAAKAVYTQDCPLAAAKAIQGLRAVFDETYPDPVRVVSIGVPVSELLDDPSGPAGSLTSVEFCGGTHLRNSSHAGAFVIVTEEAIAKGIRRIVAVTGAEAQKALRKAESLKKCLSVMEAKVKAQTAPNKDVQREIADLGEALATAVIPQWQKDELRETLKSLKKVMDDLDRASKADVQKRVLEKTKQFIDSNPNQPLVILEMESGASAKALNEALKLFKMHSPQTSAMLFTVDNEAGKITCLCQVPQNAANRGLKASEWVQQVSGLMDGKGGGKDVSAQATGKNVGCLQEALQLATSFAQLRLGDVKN
Test: Biolayer interferometry (BLI)
Format: binding
Conditions: immobilized AlaRS^R329H, 40, 20, 10, 5, 2.5 μM, mean ± SD, triplicate
From the text: To quantitatively analyze the binding affinity between the small molecules and the CMT mutant proteins, we performed BLI analysis on the selected candidates. BLI offers direct measurements of drug–protein binding kinetics, including key parameters such as the equilibrium dissociation constant (KD), association rate (Kon), and dissociation rate (Koff). This analysis provided key insights into the binding affinities of the four small molecules with the mutant protein AlaRS^R329H. […] To further quantify the binding of small molecules to mutant proteins, binding experiments with AlaRS^R329H proteins and small molecules were conducted using an Octet R8 system (ForteBio, Fremont, CA, USA). Purified His-tagged AlaRS^R329H proteins (500 μg/mL) were captured on Ni-NTA biosensors (ForteBio, Fremont, CA, USA), achieving a saturation response of 4–5 nm after 300 s. The biosensors were then transferred to Octet buffer (PBS with 0.01% Tween 20) for 180 s to remove loosely bound, nonspecific proteins and to establish a stable baseline. Following this, the sensors were immersed in diluted Tanshinone I (2.5–100 μM in assay buffer) for 120 s to record the association signal, and then transferred back into Octet buffer to monitor the dissociation signal for 120 s. Reference wells containing buffer instead of Tanshinone I were included to correct for baseline shifts. Additionally, a parallel set of Ni-NTA sensors in buffer served as negative reference controls to account for nonspecific binding of the compounds to the biosensor surface. The data were processed using a double reference subtraction protocol to eliminate nonspecific signals, background noise, and signal drifts caused by biosensor variability. All assays were performed in 96-well black plates with a total volume of 200 μL per well at 30 °C. Data analysis, including correction and curve fitting, was carried out using Octet® Analysis Studio 12.2.2.26. The experiment was repeated three times.

- Kd: 5.1 ± 1.9 µM
Compound: Cc1coc2c1C(=O)C(=O)c1c-2ccc2c(C)cccc12 [Tanshinone I]
